Assay results reported in patent US8703815B2, “Small molecules that covalently modify transthyretin” (The Scripps Research Institute, priority 2009, dated 2014).
Where two headings read alike, the source gives them in different places.

Assays:
[1] = molecular target: T1, WT-TTR (Homo sapiens, UniProt P02766); test: Acid-mediated WT-TTR fibril formation assay (turbidity at 400 nm); assay type: biochemical; conditions: for IC50: % fibril formation after 72 hours, read-out: IC50 (apparent), inhibition of WT-TTR amyloidogenesis
T1 construct: composed of 127-residue β-sheet-rich subunits; made in house; host or cells: E. coli
Protocol: The mixtures were vortexed and incubated (maintained) for 18 hours at 25° C.

[2] = Photoisomerization upon irradiation (312 nm, 10 seconds); assay type: physicochemical
Protocol: Although TTR can bind to small molecules composed of two aromatic rings when the tethered rings are up to 40° out of plane {based on TTR-stilbene crystal structures [Klabunde et al., Nat. Struct. Biol. 2000, 7, 312-321; Connelly et al., Curr. Opin. Struc. Biol. 2010, 20, 54-62; Johnson et al., J. Med. Chem. 2008, 51, 6348-6358; Choi et al., J. Am. Chem. Soc. 2010, 132, 1359-1370; Choi et al., Nat. Chem. Biol. 2010, 6, 133-139; Baures et al., Bioorg. Med. Chem. 1998, 6, 1389-1401; and Baures et al., Bioorg. Med. Chem. 1999, 7, 1339-1347]}, it would be energetically unfavorable to bind the excited singlet state in a conformation where the two aryl rings are oriented perpendicular to one another. Thus, we propose that the increase in fluorescence quantum yield of B2 from 0.09 in buffer to 0.55 in complex with TTR results from the resculpted excited singlet state energy surface of the stilbene in complex with TTR, such that the trans-conformer is the only state of relatively low potential energy [Gorner, H.; Kuhn, H. J. Adv, Photochem. 1995, 19, 1-117; Malkin et al., J. Phys. Chem. 1964, 68, 1153-1163; Saltiel, J. J. Am. Chem. Soc. 1967, 89, 1036-1037; Saltiel et al., J. Am. Chem. Soc. 1972, 94, 6445-6457; Saltiel et al., J. Am. Chem. Soc. 1979, 101, 2982-2996; and Saltiel et al., J. Am. Chem. Soc. 1968, 90, 4759-4760] inhibiting photoisomerization-based relaxation of B2. That B2 binding to TTR inhibits B2 photoisomerization is consistent with the observation that the irradiation of B2 in buffer (Life Technologies, TFX-35M, 312 nm) for 10 seconds affords 60% of the cis isomer, along with other minor photoreaction products, whereas irradiation of B2 bound to TTR yields only 20% cis isomer.
It appears that the increase in fluorescence quantum yield of A2 from 0.00 in buffer to 0.27 in the TTR-(stilbene)n≦2 conjugate is only partly explained by the mechanism proposed for B2 [Gorner, H.; Kuhn, H. J. Adv, Photochem. 1995, 19, 1-117; Malkin et al., J. Phys. Chem. 1964, 68, 1153-1163; Saltiel, J. J. Am. Chem. Soc. 1967, 89, 1036-1037; Saltiel et al., J. Am. Chem. Soc. […]

[3] = tested on: human fibroblasts; test: A2 treatment of human fibroblasts (no TTR); assay type: cell-based; conditions: A2 10 μM, 30 minutes
Text: (§1) The confocal fluorescence observations are consistent with substantial evidence that the liver secretes the vast majority, if not all, of the TTR into the human bloodstream [Felding et al., Biochimica et Biophysica Acta 1982, 716, 446-9]. That TTR could be visualized in the secretory pathway addresses the sensitivity of A2-derived TTR fluorescent conjugate-based detection [Sekijima et al., Cell 2005, 121, 73-85].
(§2) Huh-7 cells or Gaucher's patient-derived fibroblasts (Coriell Cell Repositories, GM08760) were maintained in DMEM containing 10% FBS at 37° C. under 5% CO2. The cells were plated the day before compound treatment and imaging. Cells were washed twice with PBS and then treated with A2 (final concentration: 10 μM) for 30 minutes at 37° C. in a CO2 incubator. After two washes, cells were fixed at 25° C. for 15 minutes with 3.7% paraformaldehyde (w/v) in PBS and microscopic images were acquired as described above.

[4] = molecular target: T1, WT-TTR; test: Quantum yield measurement with WT-TTR; assay type: physicochemical; conditions: compound 7.2 μM
Protocol: (§3) The covalent TTR modifier A1 or A2 or the non-covalent TTR ligand B2 (15 μL of a 1.44 mM solution in DMSO, final concentration: 7.2 μM) was added to 3 mL of a solution of WT-TTR homotetramer (0.2 mg/mL, 3.6 μM) in 10 mM phosphate, 100 mM KCl and 1 mM EDTA (pH 7.0 phosphate buffer). The samples were vortexed, and incubated for 18 hours at 25° C. Quantum yields were measured by following the instructions at the web site: jobinyvon.com/usadivisions/Fluorescence/applications/quantumyieldstrad.pdf. Quinine bisulfate in 0.5 M H2SO4 was used as a reference for comparison (Φf=0.546). [Crosby et al., J. Phys. Chem. 1971, 75, 991-1024.]

[5] = molecular target: T1, WT-TTR; test: Selectivity of A2 TTR conjugation in HeLa cell lysate (RP-HPLC, LC-MS); assay type: binding; conditions: WT-TTR 5 μM, A2 15 μM, maximum of 50%
Protocol: The ability of A2 to form a chemoselective amide bond with the K15 residue of TTR in cell lysate was assessed by RP-HPLC and LC-MS analysis. […] Immunoisolation of TTR affords the expected mass resulting from conjugate formation (14,185 m/z [M+H] for benzoylation by A2).

[6] = tested on: Huh-7 human liver (hepatoma) cells; test: Labeling of endogenous TTR in Huh-7 cells; assay type: cell-based; conditions: A2 10 μM, 30 minutes
Text: as §1, §2

[7] = Quantum yield measurement in buffer; assay type: physicochemical
Protocol: as §3

Row | Structure (SMILES) | IC50 ([1]; WT-TTR 3.6 μM) | IC50 ([1]; WT-TTR […]) | % Fibril Formation 7.2 μM (WT-TTR) ([1]; WT-TTR […], compound 7.2 μM, pH 4.4, 72 hours, 37° C.) | % Fibril Formation […] (WT-TTR) ([1]; WT-TTR […], compound […], pH 4.4, 72 hours, 37° C.) | photoisomerization upon irradiation in buffer (in words) [2] | fluorescence in human fibroblasts [3] | fluorescence quantum yield in complex or conjugate with TTR [4] | % of TTR subunits modified in HeLa cell lysate [5] | fluorescence in Huh-7 cells [6] | fluorescence quantum yield in buffer [7]
1 | Cc1cc(/C=C/c2cccc(C(=O)Sc3ccccc3)c2)cc(C)c1O [Compound 2, (E)-S-phenyl 3-(4-hydroxy-3,5-dimethylstyryl)benzothioate] | 1.96 to 2.26 µM | 2 µM | 2% | 16% | – | – | – | – | – | –
2 | Cc1cc(/C=C/c2cc(C(=O)Sc3ccc(F)cc3)cc(N(C)C)c2)cc(C)c1O [Compound A2, (E)-S-4-fluorophenyl 3-(dimethylamino)-5-(4-hydroxy-3,5-dimethylstyryl)-benzothioate] | – | – | – | – | does not readily form the cis isomer | no significant fluorescence | 0.27 | 49% | strong fluorescence | 0.00
